Drawing on article PMC12424613, “Analysis of the resistance level and target site resistance mechanisms of Echinochloa crus-galli to penoxsulam from Hubei Province, China” (PeerJ, 2025), this text covers IC50 for 1 compound.

In the test the target is T1, acetolactate synthase (ALS).
T1 construct: native ALS from leaf extract of susceptible population 18-NJ (ammonium sulfate precipitated, desalted; ALS1/ALS2/ALS3 copies not separated)
Briefly: in vitro ALS activity assay (acetoin formation, […] nm) in desalted leaf enzyme extract. The class given is biochemical, Echinochloa crus-galli.

Structures are written as SMILES. pIC50: −log10 of the molar value.

In general, pIC50 refers to the IC50 on a negative log10 scale, so that one unit is a factor of ten. `COc1cnc(OC)n2nc(NS(=O)(=O)c3c(OCC(F)F)cccc3C(F)(F)F)nc12` [penoxsulam]: the pIC50 is 5.91.
